Measured values published in ChEMBL document CHEMBL4665709, “Rational Avoidance of Protease Cleavage Sites and Symmetrical End-Tagging Significantly Enhances the Stability and Therapeutic Potential of Antimicrobial Peptides” (J Med Chem, 2020).
Active and inactive are the calls of the source. Where a SMILES comes first, the peptide text is derived from it.

Key:
Cell membrane [1] = assay: Induction of morpholoical changes in membrane of Escherichia coli ATCC 25922 assessed as breakage in bacterial membrane at 1 times MIC after 1 hr by scanning electron microscopy
Staphylococcus aureus [2] = assay: Antibacterial activity against Staphylococcus aureus 29213 with 0.0625-2 mg/mL pepsin for 1 hr followed by test compound addition measured after 4 to 8 hrs by CLSI-based broth microdilution method; type: functional, organism-based; settings: time hrs 4-8
[3] = Toxicity in C57BL/6 mouse assessed as effect on alanine aminotransferase level at 20 mg/kg, ip measured after 5 days; type: organism-based; settings: in vivo, 120 h, time 5 day
Escherichia coli [4] = assay: Antibacterial activity against Escherichia coli UB1005 after 18 to 24 hrs by CLSI-based broth microdilution method; type: functional; settings: time hrs 18-24
[5] = Therapeutic index, ratio of MHC for human RBC to geometric mean of peptide MIC for Staphylococcus aureus ATCC 29213; type: toxicity; settings: human red blood cells (RBC), read-out: TI
Escherichia coli [6] = assay: Antibacterial activity against Escherichia coli ATCC 25922 infected in C57BL/6 mouse assessed as reduction in lesion in liver at 10 mg/kg, ip measured after 11 hrs by hematoxylin and eosin staining based assay; type: functional, organism-based
Escherichia coli [7] = assay: Antibacterial activity against Escherichia coli ATCC 25922 infected in C57BL/6 mouse assessed as reduction in bacterial load in kidney at 10 mg/kg, ip measured after 11 hrs (reference value: 7.59 log CFU/g); type: functional
Staphylococcus aureus [8] = assay: Displacement of BODIPY-TR-cadaverine from Staphylococcus aureus LTA after 4 hrs by fluorescence assay
Cell membrane [9] = assay: Induction of structural changes in membrane of Escherichia coli ATCC 25922 assessed as cytoplasmic leakage at 1 times MIC after 1 hr by transmission electron microscopy
Escherichia coli [10] = assay: Antibacterial activity against Escherichia coli ATCC 25922 infected in C57BL/6 mouse assessed as reduction in TNF-alpha level in serum at 10 mg/kg, ip measured after 11 hrs by ELISA; type: functional, organism-based
Cell membrane [11] = assay: Induction of cytoplasmic membrane depolarization in Staphylococcus aureus ATCC 29213 at 0.5 to 2 times MIC up to 1000 secs by DiSC3-5 dye-based fluorescence assay; type: subcellular; settings: time sec <=1000
Escherichia coli [12] = assay: Antibacterial activity against Escherichia coli ATCC 25922 infected in C57BL/6 mouse assessed as reduction in lesion in spleen at 10 mg/kg, ip measured after 11 hrs by hematoxylin and eosin staining based assay; type: functional, organism-based
Staphylococcus aureus [13] = assay: Antibacterial activity against Staphylococcus aureus ATCC 29213 after 18 to 24 hrs in presence of 150 mM Na+ by CLSI-based broth microdilution method; type: functional; settings: time hrs 18-24
Cell membrane [14] = assay: Induction of morpholoical changes in membrane of Staphylococcus aureus ATCC 29213 assessed as fragmentation in bacterial membrane at 1 times MIC after 1 hr by scanning electron microscopy; type: subcellular
Salmonella typhimurium [15] = assay: Antibacterial activity against Salmonella typhimurium 14028 after 18 to 24 hrs by CLSI-based broth microdilution method; type: functional, Salmonella enterica subsp. enterica serovar Typhimurium; settings: Salmonella enterica, time hrs 18-24
Escherichia coli [16] = assay: Antibacterial activity against Escherichia coli ATCC 25922 infected in C57BL/6 mouse assessed as reduction in bacterial load in spleen at 10 mg/kg, ip measured after 11 hrs (reference value: 6.02 log CFU/g); type: functional
Escherichia coli [17] = assay: Antibacterial activity against Escherichia coli ATCC 25922 infected in C57BL/6 mouse assessed as reduction in IL-1beta level in serum at 10 mg/kg, ip measured after 11 hrs by ELISA; type: functional, organism-based
[18] = Stability of compound assessed as proteinase K (unknown origin)-mediated drug degradation after 8 hrs by SDS-PAGE analysis; type: ADME; settings: human
Escherichia coli [19] = assay: Antibacterial activity against Escherichia coli ATCC 25922 after 18 to 24 hrs in presence of 1 mM Mg2+ by CLSI-based broth microdilution method; type: functional; settings: time hrs 18-24
Staphylococcus aureus [20] = assay: Antibacterial activity against Staphylococcus aureus 29213 with 0.0625-2 mg/mL chymotrypsin for 1 hr followed by test compound addition measured after 4 to 8 hrs by CLSI-based broth microdilution method; type: functional, organism-based; settings: time hrs 4-8
[21] = Toxicity in C57BL/6 mouse assessed as change in body weigh at 10 mg/kg, ip measured for 5 days; type: organism-based; settings: in vivo, 120 h, time 5 day
Escherichia coli [22] = assay: Antibacterial activity against Escherichia coli ATCC 25922 infected in C57BL/6 mouse assessed as reduction in lesion in kidney at 10 mg/kg, ip measured after 11 hrs by hematoxylin and eosin staining based assay; type: functional, organism-based
Escherichia coli [23] = assay: Antibacterial activity against Escherichia coli ATCC 25922 after 18 to 24 hrs in presence of 8 uM Zn2+ by CLSI-based broth microdilution method; type: functional; settings: time hrs 18-24
Cell membrane [24] = assay: Induction of structural changes in membrane of Staphylococcus aureus ATCC 29213 assessed as sparsity at 1 times MIC after 1 hr by transmission electron microscopy; type: subcellular
[25] = Therapeutic index, ratio of MHC for human RBC to geometric mean of peptide MIC for Salmonella pullorum 7913; type: toxicity; settings: human red blood cells (RBC), read-out: TI
Staphylococcus aureus [26] = assay: Antibacterial activity against Staphylococcus aureus 29213 with 0.0625-2 mg/mL trypsin for 1 hr followed by test compound addition measured after 4 to 8 hrs by CLSI-based broth microdilution method; type: functional, organism-based; settings: time hrs 4-8
Cell membrane [27] = assay: Induction of morpholoical changes in membrane of Staphylococcus aureus ATCC 29213 assessed as corrugation in bacterial membrane at 1 times MIC after 1 hr by scanning electron microscopy; type: subcellular
Cell membrane [28] = assay: Disruption of membrane integrity in Staphylococcus aureus ATCC 29213 assessed as induction of membrane rupture at 0.5 to 2 times after 1 hr by PI-staining based fluorescence microscopy; type: subcellular
Staphylococcus aureus [29] = assay: Antibacterial activity against Staphylococcus aureus ATCC 29213 after 18 to 24 hrs in presence of 6 uM Fe3+ by CLSI-based broth microdilution method; type: functional; settings: time hrs 18-24
Cell membrane [30] = assay: Induction of structural changes in membrane of Escherichia coli ATCC 25922 assessed as sparsity at 1 times MIC after 1 hr by transmission electron microscopy; type: subcellular
Cell membrane [31] = assay: Disruption of membrane integrity in Escherichia coli ATCC 25922 assessed as induction of membrane rupture at 0.5 to 2 times MIC after 1 hr by SYTO-9/PI-staining based fluorescence microscopy
Cell membrane [32] = assay: Induction of membrane in permeabilization Staphylococcus aureus ATCC 29213 after 1 hr by FITC/PI fluorescence staining-based confocal microscopy analysis
RAW264.7 = assay: Antiinflammatory activity in mouse RAW264.7 cells assessed as inhibition of LPS-induced TNF-alpha production after 24 hrs by ELISA; type: functional, cell-based
Salmonella typhimurium [33] = assay: Antibacterial activity against Salmonella typhimurium 7731 after 18 to 24 hrs by CLSI-based broth microdilution method; type: functional, Salmonella enterica subsp. enterica serovar Typhimurium; settings: Salmonella enterica, time hrs 18-24
Cell membrane [34] = assay: Disruption of membrane integrity in Staphylococcus aureus ATCC 29213 assessed as induction of membrane rupture after 1 hr by PI-staining based flow cytometry analysis
Escherichia coli [35] = assay: Antibacterial activity against Escherichia coli ATCC 25922 infected in C57BL/6 mouse assessed as reduction in lesion in lung at 10 mg/kg, ip measured after 11 hrs by hematoxylin and eosin staining based assay; type: functional, organism-based

CC[C@H](C)[C@H](N)C(=O)N[C@H](C(=O)N[C@H](C(=O)N[C@@H](CS)C(=O)N[C@@H](CCCNC(=N)N)C(=O)N[C@@H](CCCCN)C(=O)N1CCC[C@H]1C(=O)N[C@H](C(=O)N[C@H](C(=O)N[C@@H](CS)C(=O)N[C@@H](CCCNC(=N)N)C(=O)N[C@@H](CCCCN)C(=O)N1CCC[C@H]1C(=O)N[C@H](C(=O)N[C@H](C(=O)N[C@@H](CS)C(=O)N[C@@H](CCCNC(=N)N)C(=O)N[C@@H](CCCCN)C(=O)N1CCC[C@H]1C(=O)N[C@H](C(=O)N[C@H](C(=O)N[C@@H](CS)C(=O)N[C@@H](CCCNC(=N)N)C(=O)N[C@@H](CCCCN)C(=O)N1CCC[C@H]1C(=O)N[C@H](C(=O)N[C@H](C(=O)N[C@H](C(N)=O)[C@@H](C)CC)[C@@H](C)CC)[C@@H](C)CC)[C@@H](C)CC)[C@@H](C)CC)[C@@H](C)CC)[C@@H](C)CC)[C@@H](C)CC)[C@@H](C)CC)[C@@H](C)CC)[C@@H](C)CC (H-IIICRKPIICRKPIICRKPIICRKPIII-NH2)
8 µM: MIC (Staphylococcus aureus [29])
active: Activity (Cell membrane [1]) | Activity (Staphylococcus aureus [2]) | Activity (Escherichia coli [6]) | Activity (Staphylococcus aureus [8]) Dose-dependent effect | Activity (Cell membrane [9]) | Activity (Escherichia coli [10]) | Activity (Cell membrane [11]) | Activity (Escherichia coli [12]) | Activity (Cell membrane [14]) | Activity (Escherichia coli [17]) | Activity (Staphylococcus aureus [20]) | Activity (Escherichia coli [22]) | Activity (Cell membrane [24]) | Activity (Staphylococcus aureus [26]) | Activity (Cell membrane [27]) | Activity (Cell membrane [28]) | Activity (Cell membrane [30]) | Activity (Cell membrane [31]) | Activity (Cell membrane [32]) | Activity (RAW264.7) Dose-dependent effect | Activity (Cell membrane [34]) Dose-dependent effect | Activity (Escherichia coli [35])
4.89 log10CFU/g: Activity (Escherichia coli [16])
2 µM: MIC (Escherichia coli [4]) | MIC (Salmonella typhimurium [15]) | MIC (Escherichia coli [23]) | MIC (Salmonella typhimurium [33])
Non-Toxic: Activity [3] | Activity [21]
Stable: Stabilty [18]
16 µM: MIC (Staphylococcus aureus [13])
28.5: selectivity ratio [5]
4 µM: MIC (Escherichia coli [19])
5.38 log10CFU/g: Activity (Escherichia coli [7])
57: selectivity ratio [25]
